From patent US6077841A, “5-heterocyclyl pyrazolo[4,3-d]pyrimidin-7-ones for the treatment of male erectile dysfunction” (Janssen Pharmaceutica, N.V., priority 1999, dated 2000)
pIC50: −log10 of the molar value. Like-named read-outs stand apart in the source and are kept apart here.

What was measured:
[1] = biological target: PDE V (Oryctolagus cuniculus, UniProt G1SX67); experiment: Measurement of Inhibition of PDE V (cyclic nucleotide phosphodiesterase assay); type: biochemical, rabbit; settings: for pIC50: 1 μM cGMP or cAMP, pH 7.4, 30° C., 30 minutes, 10% DMSO, read-out: Activity IC50 (PDEV inhibitory activity); for inhibition at 20 µM / inhibition at 10 µM: read-out: Activity Inhibition % at (conc. μM)
[2] = tested on: erectile dysfunction; settings: cited from earlier work
[3] = tested on: erectile dysfunction; settings: cited from earlier work; remark: listed apart in the source

CCCc1nn(C)c2c(=O)[nH]c(-c3sccc3OCC)nc12 [Compound 4, 5-(3-Ethoxythiophene-2-yl)-1-methyl-3-n-propyl-6,7-dihydro-1H-pyrazolo-[4,3-d]pyrimidin-7-one]
pIC50 [1]: 6.33

CCCc1nn(C)c2c(=O)[nH]c(-c3sc(S(=O)(=O)N4CCN(C)CC4)cc3OCC)nc12 [Compound 5, 5-[3-Ethoxy-5-(4-methylpiperazinylsulfonyl)-thiophene-2-yl]-1-methyl-3-n-propyl-6,7-dihydro-1H-pyrazolo-[4,3-d]pyrimidin-7-one]
pIC50 [1]: 5.10

CCCc1nn(C)c2c(=O)[nH]c(-c3sc(S(=O)(=O)N4CCN(C)CC4)cc3O)nc12 [Compound 6, 5-[3-hydroxy-5-(4-methylpiperazinylsulfonyl)-thiophene-2-yl]-1-methyl-3-n-propyl-6,7-dihydro-1H-pyrazolo-[4,3-d]pyrimidin-7-one]
pIC50 [1]: 5.00

CCCc1nn(C)c2c(=O)[nH]c(-c3cc4cccc(OCC)c4o3)nc12 [Compound 7, 5-(7-Ethoxybenzofuran-2-yl)-1-methyl-3-n-propyl-6,7-dihydro-1H-pyrazolo-[4,3-d]pyrimidin-7-one]
pIC50 [1]: 6.04

CCCc1nn(C)c2c(=O)[nH]c(-c3cc4c(S(=O)(=O)N5CCN(C)CC5)ccc(OCC)c4o3)nc12 [Compound 8]
pIC50 [1]: 5.27

CCCc1nn(C)c2c(=O)[nH]c(-c3cc4c(S(=O)(=O)N5CCN(C)CC5)cc(S(=O)(=O)N5CCN(C)CC5)c(OCC)c4o3)nc12 [Compound 9]
inhibition at 20 µM [1]: 6%

CCCc1nn(C)c2c(=O)[nH]c(-c3cccn3C)nc12 [Compound 10]
pIC50 [1]: 5.46

CCCc1nn(C)c2c(=O)[nH]c(-c3cc(S(=O)(=O)N4CCN(C)CC4)cn3C)nc12 [Compound 11]
inhibition at 10 µM [1]: 31%

CCCc1nn(C)c2c(=O)[nH]c(-c3sc(S(=O)(=O)N4CCN(c5ncccn5)CC4)cc3OCC)nc12 [Compound 12]
pIC50 [1]: 5.92

CCCc1nn(C)c2c(=O)[nH]c(-c3sc(S(=O)(=O)N4CCN(Cc5ccccc5)CC4)cc3OCC)nc12 [Compound 13]
inhibition at 20 µM [1]: 46%

CCCc1nn(C)c2c(=O)[nH]c(-c3sc(S(=O)(=O)N4CCN(Cc5ccccc5)CC4)cc3O)nc12 [Compound 14]
inhibition at 20 µM [1]: 18%

CCCc1nn(C)c2c(=O)[nH]c(-c3sc(S(=O)(=O)N4CCN(c5ncccn5)CC4)cc3O)nc12 [Compound 15]
inhibition at 20 µM [1]: 13%

CCCc1nn(C)c2c(=O)[nH]c(-c3sc(S(=O)(=O)N4CCN(c5ccccc5)CC4)cc3OCC)nc12 [Compound 16]
inhibition at 10 µM [1]: 19%

CCCc1nn(C)c2c(=O)[nH]c(-c3sc(S(=O)(=O)N4CCN(c5ccccc5)CC4)cc3O)nc12 [Compound 17]
inhibition at 10 µM [1]: 28%

CCCc1nn(C)c2c(=O)[nH]c(-c3sc(S(=O)(=O)N4CCN(C/C=C/c5ccccc5)CC4)cc3OCC)nc12 [Compound 18]
inhibition at 10 µM [1]: 44%

CCCc1nn(C)c2c(=O)[nH]c(-c3sc(S(=O)(=O)N4CCN(C/C=C/c5ccccc5)CC4)cc3O)nc12 [Compound 19]
inhibition at 10 µM [1]: 27%

CCCc1nn(C)c2c(=O)[nH]c(-c3sc(S(=O)(=O)N4CCN(C(N)=O)CC4)cc3OCC)nc12 [Compound 20]
pIC50 [1]: 6.02

CCCc1nn(C)c2c(=O)[nH]c(-c3sc(S(=O)(=O)N4CCN(C(N)=O)CC4)cc3O)nc12 [Compound 21]
inhibition at 10 µM [1]: 30%

CCCc1nn(C)c2c(=O)[nH]c(-c3sc(S(=O)(=O)N(C)C)cc3OCC)nc12 [Compound 22]
pIC50 [1]: 5.85

CCCc1nn(C)c2c(=O)[nH]c(-c3sc(S(=O)(=O)N(C)C)cc3O)nc12 [Compound 23]
inhibition at 10 µM [1]: 30%

CCCc1nn(C)c2c(=O)[nH]c(-c3sc(S(=O)(=O)N4CCN(CC)CC4)cc3OCC)nc12 [Compound 24]
pIC50 [1]: 5.64

CCCc1nn(C)c2c(=O)[nH]c(-c3sc(S(=O)(=O)N4CCN(CC)CC4)cc3O)nc12 [Compound 25]
inhibition at 10 µM [1]: 26%

CCCc1nn(C)c2c(=O)[nH]c(-c3sc(S(=O)(=O)N(C)CCN(C)C)cc3OCC)nc12 [Compound 26]
pIC50 [1]: 5.31

CCCc1nn(C)c2c(=O)[nH]c(-c3sc(S(=O)(=O)N(C)CCN(C)C)cc3O)nc12 [Compound 27]
inhibition at 10 µM [1]: 32%

CCCc1nn(C)c2c(=O)[nH]c(-c3cccs3)nc12 [Compound 28]
pIC50 [1]: 5.80

CCCc1nn(C)c2c(=O)[nH]c(-c3sc(S(=O)(=O)N4CCC(N(C)C)CC4)cc3OCC)nc12 [Compound 29]
pIC50 [1]: 5.08

CCCc1nn(C)c2c(=O)[nH]c(-c3sc(S(=O)(=O)N4CCN(C5CCCCC5)CC4)cc3OCC)nc12 [Compound 30]
inhibition at 10 µM [1]: 33%

CCCc1nn(C)c2c(=O)[nH]c(-c3sc(S(=O)(=O)N4CCN(C5CCCCC5)CC4)cc3O)nc12 [Compound 31]
inhibition at 10 µM [1]: 31%

CCCc1nn(C)c2c(=O)[nH]c(-c3cc(S(=O)(=O)N4CCN(c5ncccn5)CC4)cn3C)nc12 [Compound 32]
inhibition at 10 µM [1]: 31%

CCCCC[C@H](O)/C=C/[C@H]1[C@H](O)CC(=O)[C@@H]1CCCCCCC(=O)O [alprostadil]
side effects ([2]; in vivo): priapism, fibrosis, penile pain and hematoma at the injection site

COc1ccc(Cc2nccc3cc(OC)c(OC)cc23)cc1OC [papaverine]
side effects ([2]; direct intracavernosal or intraurethral injection): priapism, fibrosis, penile pain and hematoma at the injection site

Cc1ccc(N(CC2=NCCN2)c2cccc(O)c2)cc1 [phentolamine]
side effects ([2]; in vivo): priapism, fibrosis, penile pain and hematoma at the injection site

CCCc1nn(C)c2c(=O)[nH]c(-c3cc(S(=O)(=O)N4CCN(C)CC4)ccc3OCC)nc12 [sildenafil, 5-[2-ethoxy-5-(4-methylpiperazin-1-ylsulphonyl)phenyl]-1-methyl-3-n-propyl-6,7-dihydro-1H-pyrazolo[4,3-d]pyrimidin-7-one]
improved sexual function in men who suffer from ED ([3]; ED of psychogenic or organic etiology, share of men): about 70% | patients with improved erections ([3]; patients who had undergone a radical prostatectomy, versus 15% on placebo): 43% | undesirable side effects ([3]; use of sildenafil): headache, flushing and disrupted color vision
